Columns and labels:
[1] = system: exosome fraction B derived from human breast cancer cells (MDA-MB-231-luc-D3H2LN); test: Extraction of microRNA (miR-21) from exosomes derived from human breast cancer cells, real-time PCR; type: biochemical; conditions: 100 μM peptide, 1×10^11 particles/mL exosomes, 0.4 U/μL RNase inhibitor, 37° C., 24 hours; without peptide 8×10^−14M
[2] = system: exosome derived from human prostate cancer cells (PC3ML); test: Extraction of microRNA (miR-21) from exosome derived from prostate cancer cells, real-time PCR; type: biochemical; conditions: 100 μM peptide, 1×10^11 particles/mL PC3ML exosomes, 0.4 U/μL RNase inhibitor, 37° C., 24 hours; without peptide 3×10^−14M
Experimental: A cell suspension of cell line PC3ML derived from human prostate cancer cells (provided by the National Cancer Center Research Institute) was seeded in a dish containing RPMI 1640 medium (manufactured by Thermo Fisher Scientific Inc.) containing 10% fetal bovine serum. Subsequently, the cell line was grown at 37° C. under the condition that CO2 concentration was set to 5 volume % using a CO2 incubator, and then the medium was replaced with Advanced RPMI 1640 medium (manufactured by Thermo Fisher Scientific Inc.), followed by culturing for 48 hours, and the culture solution containing exosomes was obtained. This culture solution was centrifuged at 2,000 G for 10 minutes to remove the precipitate, followed by centrifugation at 110,000 G for 70 minutes to precipitate the exosomes, and therefore an exosome fraction was recovered. The recovered exosome fraction was suspended in a phosphate buffered saline (PBS) and then stored at 4° C. Storage samples were lightly suspended with a vortex mixer (vibration mixer) before use. […]
The reverse transcription PCR solution obtained by the above described method was processed and by comparing the number of cycles on a calibration curve of microRNA using Taqman Assay primer (manufactured by Thermo Fisher Scientific Inc., Taqman microRNA Assays, Taqman Assay primer, and hsa-mir-21 or hsa-mir-16) and Real-Time PCR Master Mixes (manufactured by Thermo Fisher Scientific Inc., TaqMan Universal PCR Master Mix II, w/UNG) with StepOnePlus Real-Time PCR System, MiR-21 or miR-16 was quantified. […]
The amount of microRNA (miR-21) contained in the recovered eluate was quantified by the above described real-time PCR method. […] In addition, the destructive activity of the antimicrobial peptide used was evaluated on the basis of the following criteria based on the quantitative result of the concentration of microRNA (miR-21) performed by the real-time PCR method. […]

Magainin 2
Destructive activity (concentration of microRNA miR-21 in eluate) [1]: A (the concentration of microRNA is 50×10^−14M or more)
Destructive activity (concentration of microRNA miR-21 in eluate) [2]: B (the concentration of microRNA is 5×10^−14M to 10×10^−14M)
